From publication PMC8318231, “Rate-of-Kill (RoK) assays to triage large compound sets for Chagas disease drug discovery: Application to GSK Chagas Box” (PLoS Neglected Tropical Diseases, 2021)
Like-named read-outs stand apart in the source and are kept apart here.

Columns and labels:
[1] = tested on: T. cruzi Tulahuen trypomastigotes; test: T. cruzi trypomastigote assay (Cell Titer-Glo viability, ATP luminescence); format: cell-based, Trypanosoma cruzi; conditions: for Trypomastigotes pIC50 48 hours: 48 hours incubation; for Trypomastigotes pIC50 48 hours / Trypomastigotes pIC50 72 hours: pIC50 = -log10 IC50 in molar units; for Trypomastigotes pIC50 72 hours: 72 hours incubation; for activity in trypomastigotes assay (in words): 48 and 72 hours; for IC50: Trypanosoma cruzi, TULAHUEN
How it was run: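 Compounds were tested in dose response or once at a final 5 μM against 5 × 10^4 trypomastigotes per well (DMEM, 2% FBS), collected on days 5–8 from LLC-MK2 infected cultures. ATP luminescence via CellTiter-Glo reports live parasites; DMSO defines 0% and cell-free wells 100% effect.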

[2] = tested on: H9c2 (rat cardiomyocytes); test: RoK assay, number of host cells nuclei (drug-related cytotoxicity, H9c2 output, Cmin_Tox); conditions: for Cmin_Tox: H9c2 host cells
Procedure: For this high-content intracellular imaging assay, H9c2 cells were seeded in 225 cm^2 T- FLASK in DMEM with 10% FBS for 4 h to allow attachment. T. cruzi trypomastigotes, collected at days 5 to 8 after infection from LLC-MK2 parasite infected cultures, were allowed to swim out for 4 h at 37°C from a centrifuged pellet (1,600 x g / 10 min). Trypomastigotes were then collected and counted in a CASY Cell Counter using the 60 μm capillary. […] Cells were washed once with PBS before incubation of the infected H9c2 monolayer with trypsin (Life-Technologies) to detach cells from the flask. Cells were counted in a CASY Cell Counter, using the 150 μm capillary, and their density set at 5 x 10^4 cells/mL in supplemented DMEM. Infected H9c2 were dispensed into 384-well plates at 50 μL per well using a Multidrop Combi dispenser. Control wells used to determine a 100% parasitic growth (full 6th column of each plate) were left untreated, whereas not infected cells were added in the control wells used as 0% parasite growth (or 100% parasite growth inhibition; full 18th column of each plate). The four plates corresponding to each RoK assay were predispensed for the same mother plate. […] Cultures were then fixed and stained with 50 μL per well of a PBS solution containing 4% formaldehyde and 2 μM DRAQ5 DNA dye (BioStatus, UK). Then plates were read in a PerkinElmer Opera Phenix using a 20x objective, 3 fields per well. DRAQ5 signal was detected using 640 nm excitation laser and a 690/50 nm emission detection filter. Automated image analysis was performed with a script developed on Acapella High Content Imaging and Analysis Software (PerkinElmer). Two outputs were provided for each sample well: (1) number of host cells nuclei to determine drug-related cytotoxicity (aka H9c2) and (2) number of amastigotes per cell as infection level measurement (aka AM/CELL). Each output is plotted as a time course for each compound at every concentration. This assay was adapted from Alonso-Padilla et al. and Peña et al..
• ME (Maximum Effect) is the maximum percentage of parasite burden reduction reached by any compound concentration. Compounds that decrease the initial parasite load will show a positive value of ME, whereas compounds that allow the progression of infection will render a negative ME value. […] It is calculated for the MCC50 (t50%_MCC50) and for the maximum concentration (t50%_Cmax). […] The value of this parameter is not either interpolated or extrapolated, and it refers to the first experimental time-course point at which a 50% of effect is reached or exceeded. • tlag defines the time elapsed for one particular concentration to reduce parasite burden between two consecutive points at any moment of the time course. It is calculated for the MCC50 (tlag_MCC50) and for the maximum concentration (tlag_Cmax). The value of this parameter is not either interpolated or extrapolated, and it refers to the first experimental time-course point of a positive slope in the normalised plot (i.e. %Cidal_Response). • Cmin_Tox (Minimal CytoToxic Concentration) is the lowest compound concentration that is reducing the number of host mammalian cells below 50% of initial cell density. Cytotoxic compounds may mislead a bona fide antiparasitic action. Therefore, this descriptor is used to flag this kind of compounds and warn about the genuine meaning of the rest of descriptors.

TcCYP51 = conditions: cited from earlier work; for CYP51 pIC50: formerly reported
[3] = 72 hours, plotted values, censored values given without sign
[4] = trypomastigote assay, 48 h, figure 1A
[5] = trypomastigote assay, 72 h, figure 1A
[6] = trypomastigote assay, 72 h, figure 1B

c1ccc2c(CCOc3nccnc3-c3ccncc3)c[nH]c2c1 [TCMDC-143562]
Trypomastigotes pIC50 48 hours [1]: 4.4
Trypomastigotes pIC50 72 hours [1]: 4.5
Cmin_Tox [2]: >50 µM
CYP51 pIC50 (TcCYP51): 7.2

N#Cc1ccc(S(=O)(=O)N2CCC3(CCN(c4ccccc4)C3=O)CC2)cc1 [TCMDC-143371]
Trypomastigotes pIC50 48 hours [1]: < 4.3
Trypomastigotes pIC50 72 hours [1]: < 4.3
72 pIC50 (trypomastigotes, raw data of Fig 1D) [1, 3]: < 4.3
48 pIC50 [1, 4]: < 4.3
72 pIC50 [1, 5]: < 4.3
72 pIC50 [1, 6]: < 4.3
Cmin_Tox [2]: >50 µM
CYP51 pIC50 (TcCYP51): < 4

O=C(O)C(F)(F)F.O=c1oc2ccccc2n1C1CCN(Cc2ccccc2-c2cccnc2)CC1 [TCMDC-143389]
Trypomastigotes pIC50 48 hours [1]: < 4.3
Trypomastigotes pIC50 72 hours [1]: < 4.3
72 pIC50 (trypomastigotes, raw data of Fig 1D) [1, 3]: < 4.3
48 pIC50 [1, 4]: < 4.3
72 pIC50 [1, 5]: < 4.3
72 pIC50 [1, 6]: < 4.3
Cmin_Tox [2]: >50 µM
CYP51 pIC50 (TcCYP51): 7

CC(C)(C)C(Cn1ccnc1)NC(=O)c1ccc2nc(C3CC3)oc2c1 (stereo not shown) [TCMDC-143336]
Trypomastigotes pIC50 48 hours [1]: 5
Trypomastigotes pIC50 72 hours [1]: < 4.3
Cmin_Tox [2]: >50 µM
CYP51 pIC50 (TcCYP51): 7

COc1cccc(CCNC(=O)C(c2cn[nH]c2)N2CCN(c3ccc(Cl)cc3)CC2)c1 (stereo not shown) [TCMDC-143434]
Trypomastigotes pIC50 48 hours [1]: 4.4
Trypomastigotes pIC50 72 hours [1]: 4.5
cytotoxicity versus host cells (in words) [2]: hints of cytotoxicity even at low concentrations
Cmin_Tox [2]: >50 µM
CYP51 pIC50 (TcCYP51): 7.2

COc1ccc(NS(=O)(=O)c2cc(NC(=O)c3ccc([N+](=O)[O-])s3)ccc2OC)cc1 [TCMDC-143163]
activity in trypomastigotes assay (in words) [1]: potent activity
Trypomastigotes pIC50 48 hours [1]: 6.9
Trypomastigotes pIC50 72 hours [1]: 6.6
Cmin_Tox [2]: >50 µM
CYP51 pIC50 (TcCYP51): 6

CC1CS(=O)(=O)CCN1/N=C/c1ccc([N+](=O)[O-])o1 (stereo not shown) [Nifurtimox, nifurtimox, reference compound]
activity in trypomastigotes assay (in words) [1]: active
IC50 ([1]; 48 h, read-out: Trypomastigotes pIC50 48 hours (converted)): 1.26 µM
IC50 ([1]; 72 h, read-out: Trypomastigotes pIC50 72 hours (converted)): 1.26 µM
IC50 ([1]; 72 hours, plotted values, censored values given without sign, read-out: 72 pIC50 (trypomastigotes, raw data of Fig 1D) (converted)): 1.26 µM
IC50 ([1]; trypomastigote assay, 48 h, figure 1A, read-out: 48 pIC50 (converted)): 1.26 µM
IC50 ([1]; trypomastigote assay, 72 h, figure 1A, read-out: 72 pIC50 (converted)): 1.26 µM
pIC50 versus trypomastigotes ([1]; invariable at the two incubation times tested): 5.9
Cmin_Tox [2]: >50 µM
CYP51 mean (TcCYP51; TcCYP51 enzyme inhibition, mean, figure 1B, ref original boxes paper): 4.3
CYP51 pIC50 (TcCYP51): < 4

NC(=O)c1ccccc1Nc1nc(NC2CCCCC2)nc2[nH]ccc12 [TCMDC-143314]
Trypomastigotes pIC50 48 hours [1]: 5.1
Trypomastigotes pIC50 72 hours [1]: 4.4
Cmin_Tox [2]: 1.9 µM
CYP51 pIC50 (TcCYP51): < 4

COc1ccc(-c2nc3ncccc3o2)cc1NC(=O)c1cccs1 [TCMDC-143137]
activity in trypomastigotes assay (in words) [1]: only active in trypomastigote assay at 72 hours
Trypomastigotes pIC50 48 hours [1]: < 4.3
Trypomastigotes pIC50 72 hours [1]: 5.2
Cmin_Tox [2]: >50 µM
CYP51 pIC50 (TcCYP51): < 4

CS(=O)(=O)c1cccc(-c2cnc(N)c3c(-c4ccc(CO)cc4)csc23)c1.O=C(O)C(F)(F)F [TCMDC-143410]
Trypomastigotes pIC50 48 hours [1]: 4.5
Trypomastigotes pIC50 72 hours [1]: 4.4
Cmin_Tox [2]: >50 µM
CYP51 pIC50 (TcCYP51): 5.5

CS(=O)(=O)c1cccc(CNC(=O)c2cncc(N3CCN(c4ccc(F)cc4)CC3)c2)c1.O=C(O)C(F)(F)F.O=C(O)C(F)(F)F.O=C(O)C(F)(F)F [TCMDC-143385]
Trypomastigotes pIC50 48 hours [1]: < 4.3
Trypomastigotes pIC50 72 hours [1]: < 4.3
72 pIC50 (trypomastigotes, raw data of Fig 1D) [1, 3]: < 4.3
48 pIC50 [1, 4]: < 4.3
72 pIC50 [1, 5]: < 4.3
72 pIC50 [1, 6]: < 4.3
Cmin_Tox [2]: >50 µM
CYP51 pIC50 (TcCYP51): 4.9

O=C1CSC(c2cccnc2)N1c1ccc(Cl)cc1Cl (stereo not shown) [TCMDC-143114]
Trypomastigotes pIC50 48 hours [1]: < 4.3
Trypomastigotes pIC50 72 hours [1]: < 4.3
72 pIC50 (trypomastigotes, raw data of Fig 1D) [1, 3]: < 4.3
48 pIC50 [1, 4]: < 4.3
72 pIC50 [1, 5]: < 4.3
72 pIC50 [1, 6]: < 4.3
Cmin_Tox [2]: >50 µM
CYP51 pIC50 (TcCYP51): 6.8
